Results on 14 molecules are retold here after US8729082B2, “Substituted imidazoquinoxalines” (Bayer Intellectual Property GmbH, priority 2009, dated 2014).

A word on the IC50: it is the midpoint of a concentration-inhibition curve.

This assay has as its target T1, human kinase Mps-1 (Homo sapiens, UniProt P33981).
T1 construct: N-terminally GST-tagged human full length recombinant Mps-1 kinase; purchased Invitrogen, Karslruhe, Germany PV4071
T1 sequence (P33981 1-857): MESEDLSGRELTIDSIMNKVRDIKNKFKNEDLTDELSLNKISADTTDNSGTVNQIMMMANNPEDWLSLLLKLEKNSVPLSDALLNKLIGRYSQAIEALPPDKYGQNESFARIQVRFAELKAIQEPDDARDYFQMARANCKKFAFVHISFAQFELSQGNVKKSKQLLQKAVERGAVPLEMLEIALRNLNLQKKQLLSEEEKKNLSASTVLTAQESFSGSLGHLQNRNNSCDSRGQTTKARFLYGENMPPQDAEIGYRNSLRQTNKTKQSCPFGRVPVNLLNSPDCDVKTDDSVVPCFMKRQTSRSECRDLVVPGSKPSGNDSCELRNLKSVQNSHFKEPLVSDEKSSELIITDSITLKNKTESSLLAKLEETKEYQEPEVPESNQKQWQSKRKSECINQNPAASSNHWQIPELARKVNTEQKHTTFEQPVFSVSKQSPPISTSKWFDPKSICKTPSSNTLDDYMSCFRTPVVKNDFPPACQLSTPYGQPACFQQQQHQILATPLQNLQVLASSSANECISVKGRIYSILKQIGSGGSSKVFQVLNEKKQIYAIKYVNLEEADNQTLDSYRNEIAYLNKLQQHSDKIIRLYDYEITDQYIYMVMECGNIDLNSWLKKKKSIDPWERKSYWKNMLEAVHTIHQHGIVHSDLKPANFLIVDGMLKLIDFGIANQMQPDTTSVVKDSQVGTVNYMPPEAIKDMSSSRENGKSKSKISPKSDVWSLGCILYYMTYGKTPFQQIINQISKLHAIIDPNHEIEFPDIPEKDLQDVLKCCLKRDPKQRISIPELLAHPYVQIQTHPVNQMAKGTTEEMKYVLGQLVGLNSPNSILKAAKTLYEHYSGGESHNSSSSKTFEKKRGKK
Put plainly: Mps-1 kinase assay (HTRF). The note with it: lowATP; mean; read-out: Mps1 lowATP mean IC50. Format: biochemical. As to the method:
The human kinase Mps-1 phosphorylates a biotinylated substrate peptide. Detection of the phosphorylated product is achieved by homogenous time-resolved fluorescence resonance energy transfer (HTRF) from Europium-labelled anti-phospho-Serine/Threonine antibody as donor to streptavidin labelled with cross-linked allophycocyanin (SA-XLent) as acceptor. Compounds are tested for their inhibition of the kinase activity.
N-terminally GST-tagged human full length recombinant Mps-1 kinase (purchased from Invitrogen, Karslruhe, Germany, cat. no PV4071) was used. As substrate for the kinase reaction a biotinylated peptide of the amino-acid sequence PWDPDDADITEILG (C-terminus in amide form, purchased from Biosynthan GmbH, Berlin) was used.
For the assay 50 nl of a 100-fold concentrated solution of the test compound in DMSO was pipetted into a black low volume 384 well microtiter plate (Greiner Bio-One, Frickenhausen, Germany), 2 μl of a solution of Mps-1 in assay buffer [0.1 mM sodium-ortho-vanadate, 10 mM MgCl2, 2 mM DTT, 25 mM Hepes pH 7.7, 0.05% BSA, 0.001% Pluronic F-127] were added and the mixture was incubated for 15 min at 22° C. to allow pre-binding of the test compounds to Mps-1 before the start of the kinase reaction. Then the kinase reaction was started by the addition of 3 μl of a solution of 16.7 μM ATP and 1.67 μM peptide in assay buffer and the resulting mixture was incubated for a reaction time of 60 min at 22° C. The concentration of Mps-1 in the assay was adjusted to the activity of the enzyme lot and was chosen appropriate to have the assay in the linear range, typical enzyme concentrations were in the range of about 1 nM (final conc. in the 5 μl assay volume). The reaction was stopped by the addition of 3 μl of a solution of HTRF detection reagents (100 mM Hepes pH 7.4, 0.1% BSA, 40 mM EDTA, 140 nM Streptavidin-XLent [#61GSTXLB, Fa. Cis Biointernational, Marcoule, France], 1.5 nM anti-phospho(Ser/Thr)-Europium-antibody [#AD0180, PerkinElmer LAS, Rodgau-Jügesheim, Germany].
The resulting mixture was incubated 1 h at 22° C. to allow the binding of the phosphorylated peptide to the anti-phospho(Ser/Thr)-Europium-antibody. Subsequently the amount of phosphorylated substrate was evaluated by measurement of the resonance energy transfer from the Europium-labelled anti-phospho(Ser/Thr) antibody to the Streptavidin-XLent. Therefore, the fluorescence emissions at 620 nm and 665 nm after excitation at 350 nm was measured in a HTRF reader, e.g. a Rubystar (BMG Labtechnologies, Offenburg, Germany) or a Viewlux (PerkinElmer LAS, Rodgau-Jügesheim, Germany). The ratio of the emissions at 665 nm and at […] was taken as the measure for the amount of phosphorylated substrate. The data were normalised (enzyme reaction without inhibitor=0% inhibition, all other assay components but no enzyme=100% inhibition).
For orientation: In TR-FRET formats the signal depends on donor and acceptor labels being close together.
As to `COCCNc1nc2ccc(F)cc2n2c(-c3ccc(C(=O)NC4CC4)cc3)cnc12` [Example 2-45, N-cyclopropyl-4-{8-fluoro-4-[(2-methoxyethyl)amino]imidazo[1,2-a]quinoxalin-1-yl}benzamide], the 50% inhibitory concentration (IC50) came out at 255 nM.
For `CCNc1nc2ccccc2n2c(-c3ccc(C(=O)NC4CC4)cc3)cnc12` [Example 2-19, N-cyclopropyl-4-[4-(ethylamino)imidazo[1,2-a]quinoxalin-1-yl]benzamide], the half-maximal inhibitory concentration (IC50) was 94 nM.
`CNC(=O)Nc1ccc(-c2cnc3c(NCc4ccccn4)nc4cc(F)c(F)cc4n23)cc1` [Example 2-121, 1-(4-{7,8-difluoro-4-[(pyridin-2-ylmethyl)amino]imidazo[1,2-a]quinoxalin-1-yl}phenyl)-3-methylurea]: the IC50 was found to be 6700 nM.
Turning to `Cc1cc2nc(NCc3cccnc3)c3ncc(-c4ccc(C(=O)NC5CC5)c(Cl)c4)n3c2cc1C` [Example 2-192, 2-chloro-N-cyclopropyl-4-{7,8-dimethyl-4-[(pyridin-3-ylmethyl)amino]imidazo[1,2-a]quinoxalin-1-yl}benzamide], the IC50 was 35.5 nM.
Consider `CC(C)CNc1nc2ccccc2n2c(-c3ccc(C(=O)O)cc3)cnc12` [Example 1-5, 4-{4-[(2-methylpropyl)amino]imidazo[1,2-a]quinoxalin-1-yl}benzoic acid], for which the IC50 was 11900 nM.
On to `O=C(NC1CC1)c1ccc(-c2cnc3c(NCc4ccccn4)nc4cc(F)c(F)cc4n23)cc1Cl` [Example 2-134, 2-chloro-N-cyclopropyl-4-{7,8-difluoro-4-[(pyridin-2-ylmethyl)amino]imidazo[1,2-a]quinoxalin-1-yl}benzamide], for which the IC50 is 6700 nM.
The value for `CNC(=O)Nc1ccc(-c2cnc3c(NCc4ccc(F)cc4)nc4cc(C)c(C)cc4n23)cc1` [Example 2-164, 1-(4-{4-[(4-fluorobenzyl)amino]-7,8-dimethylimidazo[1,2-a]quinoxalin-1-yl}phenyl)-3-methylurea] was 414 nM.
The result for `Cc1cc2nc(NCCCn3ccnc3)c3ncc(-c4ccc(C(=O)NC5CC5)c(Cl)c4)n3c2cc1C` [Example 2-189, 2-chloro-N-cyclopropyl-4-(4-{[3-(1H-imidazol-1-yl)propyl]amino}-7,8-dimethylimidazo[1,2-a]quinoxalin-1-yl)benzamide] reads 82.7 nM.
`O=C(NC1CC1)c1ccc(-c2cnc3c(NCc4cccc(F)c4)nc4cc(F)c(F)cc4n23)cc1` [Example 2-92, N-cyclopropyl-4-{7,8-difluoro-4-[(3-fluorobenzyl)amino]imidazo[1,2-a]quinoxalin-1-yl}benzamide]: the IC50 turned out to be 143 nM.
Take `CC(C)CNc1nc2ccccc2n2c(-c3ccc(C(=O)Nc4ccn(C)n4)cc3)cnc12` [Example 3-23, 4-{4-[(2-methylpropyl)amino]imidazo[1,2-a]quinoxalin-1-yl}-N-(1-methyl-1H-pyrazol-3-yl)benzamide]: the IC50 turned out to be 997 nM.
The result for `O=C(NC1CC1)c1ccc(-c2cnc3c(NCCOc4ccccc4)nc4ccccc4n23)cc1` [Example 2-29, N-cyclopropyl-4-{4-[(2-phenoxyethyl)amino]imidazo[1,2-a]quinoxalin-1-yl}benzamide] reads 443 nM.
For the molecule `CC(C)CNc1nc2ccccc2n2c(-c3ccc(C(=O)Nc4cc[nH]n4)cc3)cnc12` [Example 3-1, 4-{4-[(2-methylpropyl)amino]imidazo[1,2-a]quinoxalin-1-yl}-N-(1H-pyrazol-3-yl)benzamide], the IC50 stood at 3950 nM.
With `O=C(NC1CC1)c1ccc(-c2cnc3c(NCc4cccs4)nc4ccc(F)cc4n23)cc1` [Example 2-48, N-cyclopropyl-4-{8-fluoro-4-[(thiophen-2-ylmethyl)amino]imidazo[1,2-a]quinoxalin-1-yl}benzamide], the IC50 is 40.3 nM.
The result for `Cc1cc2nc(NCc3ccco3)c3ncc(-c4ccc(C(=O)NC5CC5)cc4)n3c2cc1C` [Example 2-153, N-cyclopropyl-4-{4-[(furan-2-ylmethyl)amino]-7,8-dimethylimidazo[1,2-a]quinoxalin-1-yl}benzamide] reads 5.22 nM.
